Experimental data from US6962706B1, “Synthetic peptides containing protective epitopes for the treatment and prevention of periodontitis associated with porphyromonas gingivalis” (The University of Melbourne, priority 1999, dated 2005).

Test system: serum IgG antibody (protective mouse sera, patient sera D20, D24, H10)
Assay: Epitope mapping ELISA of PIN-bound PrtR27 overlapping peptides with human and mouse antisera
Format: binding
Details: PIN-bound overlapping 13 mer peptides, antisera diluted 1:1000, O.D. 450 nm
From the text: FIG. 6: Serum IgG antibody responses assessed by ELISA to Porphyromonas gingivalis PrtR-27 overlapping peptides (SEQ ID NOs:13-24, 33, and 25-32, respectively, from origin). Twenty one PIN-bound peptides were probed with normal mouse sera (▪), protective mouse sera (□), normal human serum (▪), patient D24 sera (▪), patient H10 sera (▪) and patient D20 sera (▪). ELISAs were developed as per Example 1.
Twenty overlapping 13 mer peptides (overlay by 6 and offset by 7 residues) corresponding to the N-terminal 148 residues of the PrtR27 were synthesised by Chiron Technologies (Melbourne, Australia) using the multipin peptide synthesis system. The sequence of the N-terminal 148 residues of the PrtR27 adhesin is as follows: • […] (SEQ ID NO: 12). The overlapping peptides synthesised were: • […] (SEQ ID NO:13) • […] (SEQ ID NO:14) • […] (SEQ ID NO:15) • […] (SEQ ID NO:16) • […] (SEQ ID NO:17) • […] (SEQ ID NO:18) • […] (SEQ ID NO:19) • […] (SEQ ID NO:20) • […] (SEQ ID NO:21) • […] (SEQ ID NO:22) • […] (SEQ ID NO:23) • […] (SEQ ID NO:24) • […] (SEQ ID NO:25) • […] (SEQ ID NO:26) • […] (SEQ ID NO:27) • […] (SEQ ID NO:28) • […] (SEQ ID NO:29) • […] (SEQ ID NO:30) • […] (SEQ ID NO:31) • […] (SEQ ID NO:32).
Epitope mapping of the pin-bound peptides was carried out by ELISA as per Chiron Technologies instructions using the human and mouse proteinase antisera at a dilution of 1:1000 in 1% w/v non-fat skim milk powder in 0.1M phosphate buffered saline, pH 7.4, containing 0.1% v/v Tween 20. The bound antibody was detected by incubating the peptide-PINS with 0.4 mM 3,3′,5,5′-tetramethylbenzidine in 0.1M sodium acetate/citric acid buffer containing 0.004% v/v H2O2. Colour development was stopped by the addition of 2M H2SO4. Optical density (O.D.) was measured at 450 nm using a BioRad microplate reader model 450.

## TNPEPASGKMWIAGDGGNQP (listed as Porphyromonas gingivalis) [EP4]
  Antibody binding of PrtR27 regions in ELISA (FIG. 6): bind antibody

## RYDDFTFEAGKKYTFTMRRAGMGDGTD (listed as Porphyromonas gingivalis) [EP5]
  Antibody binding of PrtR27 regions in ELISA (FIG. 6): bind antibody

## LYSANFESLIPANADPVVTTQNIIVTG (listed as Porphyromonas gingivalis) [EP2]
  Antibody binding of PrtR27 regions in ELISA (FIG. 6): bind antibody

## FLLDADHNTFGSVIPATGPLFTGTASS (listed as Porphyromonas gingivalis) [EP1]
  Antibody binding of PrtR27 regions in ELISA (FIG. 6): bind antibody
